Source: US4052514A, “Trihalosubstituted biphenylyl propionic acids” (The Boots Company Limited, priority 1971, dated 1977)

Test system: adjuvant arthritis
Test: rat adjuvant arthritis test (chronic; killed human tubercle bacilli, compounds given daily by mouth for 21 days)
Format: in vivo
Conditions: for ADJUVANT ARTHRITIS (activity; 2-(2-fluoro-4-biphenylyl)propionic acid used as standard of reference): daily by mouth for 21 days, reference 2-(2-fluoro-4-biphenylyl)propionic acid = 1
Protocol: The best method of indicating long acting anti-inflammatory activity of the compounds is by means of a test in which compounds are administered chronically e.g. the rat adjuvant arthritis test. […] The adjuvant arthritis test conducted on the rat is, however a chronic test and is believed to give a good indication of the effectiveness of the compounds for the treatment of chronic conditions in humans. The adjuvant arthritis test is described by Newbould, B. B., in Br. J. Pharmac. Chemother., 1963, 21, 127. In the test arthritis is produced by injecting intradermally into the tail 0.1 ml. of a suspension of killed human tubercle bacilli (6 mg./ml.) in liquid paraffin BP. A polyarthritis develops over the next 3 weeks in untreated controls. The compounds under test (vehicle only for control animals) are given daily by mouth from the day the adjuvant is injected for 21 days. On day 21 the degree of arthritis is assessed on each hind foot. The degree of inhibition produced by a compound is estimated by comparison of the total arthritic scores with those found in the controls.
In the following Table are given the results in the adjuvant arthritis test for the four preferred compounds of the invention and 2-(2-fluoro-4-biphenylyl)propionic acid, the latter compound being used as a standard of reference in the adjuvant arthritis test.
As with the propionic acids of the invention the half-life of the compounds of the invention in the blood of the subject to which they are administered is a good indication of their duration of activity. The half-life may ve measured by giving oral doses of the compounds and determining levels in the plasma at various times thereafer, as previously described. As with the propionic acids of the invention one of the best methods of indicating long acting anti-inflammatory activity of the compounds is by means of a test in which compounds are administered chronically e.g. the rat adjuvant arthritis test.

Compound	ADJUVANT ARTHRITIS (activity; 2-(2-fluoro-4-biphenylyl)propionic acid used as standard of reference)	times as active as 2-fluoro-4-biphenylylacetic acid in adjuvant arthritis test (standard of reference 2-fluoro-4-biphenylylacetic acid)
CC(C(=O)O)c1ccc(-c2ccc(F)cc2Cl)c(F)c1 (stereo not drawn) [2-(2'-chloro-2,4'-difluoro-4-biphenylyl)propionic acid]	> 3	–
CC(C(=O)O)c1ccc(-c2ccc(F)cc2F)c(F)c1 (stereo not drawn) [2-(2,2',4'-trifluoro-4-biphenylyl)propionic acid]	> 10	–
CC(C(=O)O)c1ccc(-c2ccc(F)cc2F)c(Cl)c1 (stereo not drawn) [2-(2-chloro-2',4'-difluoro-4-biphenylyl)propionic acid]	> 10	–
CC(C(=O)O)c1ccc(-c2ccc(Cl)cc2F)c(F)c1 (stereo not drawn) [2-(4'-chloro-2,2'-difluoro-4-biphenylyl)propionic acid]	> 3	–
CC(C(=O)O)c1ccc(-c2ccccc2)c(F)c1 (stereo not drawn) [2-(2-fluoro-4-biphenylyl)propionic acid, reference compound]	1	–
O=C(O)Cc1ccc(-c2ccc(F)cc2F)c(F)c1 [2,2', 4'-trifluoro-4-biphenylacetic acid, 2,2',4'-trifluoro-4-biphenylylacetic acid]	–	more than 30 times
